Data published in article PMC9011347, “Small-Molecule Inhibitors Targeting Lipolysis in Human Adipocytes” (Journal of the American Chemical Society, 2022).

Target: T1, c9 (mouse ATGL with humanized T101, C106, R109, N111, S133) (Mus musculus, UniProt Q8BJ56, C106S/N111S/R109H/S133N/T101V)
T1 construct: host or cells: Expi293 cells, cell lysate
Assay: TAG hydrolase assay, chimeric ATGL variants
Type: biochemical, human and mouse
Conditions: variant c9, NG-497 (10 μM) or Atglistatin (10 μM)
Experimental: Figure 5 Analysis of chimeric proteins comprising human and mouse ATGL. (a) Schematic view of the minimal active domain of wild-type and chimeric ATGL variants (c1–c9). Nonidentical aa are indicated in blue and red for mouse and human ATGL, respectively. ATGL variants were expressed in Expi293 cells and TAG hydrolase activity was determined in cell lysates in the presence or absence of NG-497 (10 μM) and Atglistatin (10 μM), respectively. Inhibition of ATGL variants by respective inhibitors (tick mark) and lack of inhibition (cross) is indicated at the right edge. The expression of all ATGL variants was confirmed by Western blotting analysis (Figure S6). (b) Dose-dependent inhibition of human ATGL (aa 1–288) and c1 (human aa 1–158 and mouse aa 159–288) by NG-497. (c) Dose-dependent inhibition of mouse ATGL (aa 1–288) and c2 (mouse aa 1–158 and human aa 159–288) by Ai. IC50 values are shown in the insets. Data are presented as relative inhibition of respective DMSO controls and are indicated as mean ± SD. (d) 3D homology model of the minimal active domain of mouse ATGL (M1–L254) depicted as a cartoon. Residues 1–178 are in blue, and residues 179–254 are in gray. […]
Expression of recombinant ATGL constructs and preparation of cell lysates. […] Protein concentrations were determined using Bio-Rad protein assay (Bio-Rad 785, Bio-Rad Laboratories, Munich, Germany) using BSA as standard. […]

T1 sequence (Q8BJ56 1-288 T101V/C106S/R109H/N111S/S133N limits assumed): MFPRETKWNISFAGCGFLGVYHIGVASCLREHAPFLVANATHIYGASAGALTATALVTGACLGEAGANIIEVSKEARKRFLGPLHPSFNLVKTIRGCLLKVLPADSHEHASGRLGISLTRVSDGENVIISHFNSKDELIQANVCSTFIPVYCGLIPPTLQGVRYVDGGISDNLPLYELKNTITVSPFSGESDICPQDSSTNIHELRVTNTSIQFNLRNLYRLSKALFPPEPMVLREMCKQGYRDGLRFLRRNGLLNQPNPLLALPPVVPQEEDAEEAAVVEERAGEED

SMILES | inhibition of TAG hydrolase activity
CN(C)C(=O)Nc1cccc(-c2ccc(N(C)C)cc2)c1 [Atglistatin, reference compound] | preserved Ai binding
CCOc1ccc(-c2cc(OC)cc(C(=O)OC(C)C)n2)cc1 [NG-497] | ineffective
